Common to all, as to type: cell-based
The test system of assay [1] is PANC-1 pancreatic cancer cells. As to the kind of experiment: Bortezomib sensitization, cell viability in PANC-1 pancreatic cancer cells. The following applies: PANC-1 cells; for EC50: Homo sapiens, cell viability after 48 hour treatment; for fold increase in Btz sensitivity: compound at 1 μM vs DMSO, 48 hour. As to the method: (§1) Reference is made to FIG. 1. (A) The structures of novel derivatives E64FC26 and E64FC65 are shown. (B) Proteasome inhibitor (PI) resistant MM.1S BzR cells were treated with the E64FC26 at a concentration of 500 nM and a dose range of the PI bortezomib (Btz). Cell viability was measured after 24 hours of treatment. […] (C) PANC-1 pancreatic cancer cells were treated with the indicated derivative at a final concentration of 1 μM and a dose range of Btz. Cell viability was measured after a 48 hour treatment time. […] (D) Panels of pancreatic, ovarian, glioma, multiple myeloma, and normal cells were treated with E64FC26 and a dose range of the second generation proteasome inhibitor carfilzomib (Crflz) using a protocol similar to that described above for panels (B) and (C). Crflz EC50 values were extrapolated from dose curves conducted in the presence and absence of E64FC26 and a fold-change was calculated. Each data point represents the fold-change, or the degree of Crflz potentiation, for each cell line tested.

A further assay deals with MM.1S BzR cells. Nature of the assay: Bortezomib sensitization, cell viability in PI-resistant MM.1S BzR cells. As to conditions: for EC50: Homo sapiens, MM1.S, cell viability after 24 hours. On the procedure: as §1
The subject of assay [2] is PANC-1 pancreatic cancer cells. As to the kind of experiment: Panobinostat (HDAC inhibitor) sensitization, cytotoxicity in PANC-1 pancreatic cancer cells. As to conditions: PANC-1 cells; for EC50: Homo sapiens; for increase in panobinostat sensitivity (fold): 1 μM compound vs DMSO. As to the method:
Reference is made to FIG. 3. (A) In PANC-1 pancreatic cancer cells, the cytotoxicity of each of the indicated HDAC inhibitors was evaluated in the presence and absence of 1 μM E64FC26. EC50 values are shown. (B) Similar experiments as described in (A) were conducted using T98G glioblastoma cells. EC50 values for each of the HDAC inhibitor in the presence and absence of 1 μM E64FC26. (C) Panels of the indicated tumor cell types were treated with a dose range of the HDAC inhibitor panobinostat in the presence and absence of 1 μM E64FC26. EC50 values were extrapolated and the relative effect of E64FC26 on panobinostat sensitivity was calculated. Each data point indicated the fold change in panobinostat EC50 for that particular cell line. (D) An example of full panobinostat dose response curves in PANC-1 pancreatic cancer cells are shown. PANC-1 cells were co-treated with DMSO vehicle control, 1 μM E64FC26, or 1 μM E64FC65.

The mark [3] stands for this setting: compound at 1 μM, read-out: Btz EC50 in the presence of the compound.
[4] abbreviates: co-treated with 1 μM compound, read-out: panobinostat EC50 in the presence of the compound.

Read-outs that look alike come from different tables or passages of the source.

As a reminder, the EC50 is the midpoint of the concentration-response curve. For `CC(C)C[C@H](NC(=O)[C@H](Cc1ccccc1)NC(=O)c1cnccn1)B(O)O` [Btz, bortezomib, reference compound], the EC50 in assay [1] (Btz alone (DMSO vehicle), read-out: Btz EC50 in the presence of DMSO vehicle control) was 83.5 nM; in the assay on MM.1S BzR cells (Btz alone (DMSO vehicle), read-out: Btz EC50, control cells treated with DMSO vehicle) it was 45.5 nM.

Regarding `CCCCCCCC/C=C1\C=C(C(F)(F)F)c2cc(O)c(O)cc21` [E64FC26], the EC50 in assay [1] (setting [3]) amounted to 9.1 nM; in assay [2] (setting [4]), 5.3 nM; in the assay on MM.1S BzR cells (co-treatment with 500 nM compound, read-out: Btz EC50 in cells co-treated with the compound), 4.7 nM. Also, the “fold increase in Btz sensitivity” value was 9.2 fold in assay [1] and 9.7 fold in the assay with MM.1S BzR cells (500 nM compound vs DMSO, 24 hours). The “increase in panobinostat sensitivity (fold)” value in assay [2] turned out to be 85.5 fold.

For `CCCCCC/C=C1\C=C(C(F)(F)F)c2cc3c(cc21)OCO3` [E64FC65, (5E)-7-(trifluoromethyl)-5-heptylidene-5H-indeno[5,6-d][1,3]dioxole], the EC50 was 1.8 nM in assay [1] (setting [3]) and 1.1 nM in assay [2] (setting [4]). The “fold increase in Btz sensitivity” value in assay [1] turned out to be 46.4 fold. Besides, the “increase in panobinostat sensitivity (fold)” value in assay [2] came to 412 fold.

As for `Cc1[nH]c2ccccc2c1CCNCc1ccc(/C=C/C(=O)NO)cc1` [panobinostat, reference compound], the EC50 in assay [2] (panobinostat alone (DMSO vehicle), read-out: panobinostat EC50 in DMSO treated cells) was determined as 453 nM.
